From US10472677B2, “Translational dysfunction based therapeutics” (Translational Therapeutics, Inc., priority 2005, dated 2019)

How the values were obtained:
AML-M5 progenitor cells = assay: clonogenic assay, primary CD34+ progenitors; type: cell-based; conditions: Homo sapiens, 336 h; 14 days; read-out: apparent IC50 colony formation
Source text: Acute myelogenous leukemia (AML) M1, M5, and normal bone marrow specimens were isolated from patients and processed as described. Primary AML cells were obtained from peripheral blood of patients at the Markey Cancer Center, University of Kentucky Medical Center (Lexington, Ky.). Normal bone marrow was obtained as waste material after pathological analysis, surgical marrow harvest, or from the National Disease Research Interchange (Philadelphia). All tissues were obtained with the approval of the Institutional Review Board and appropriate informed consent. Frozen CD34^+ progenitor cells were thawed in Iscove's modified Dulbecco's (IMD) medium supplemented with 10% (vol/vol) FBS. […] Colonies with >20 cells were counted manually and experiments were repeated four times.

FaDu cells = assay: Western blot of FaDu cells treated in culture; type: cell-based, human; conditions: 48 hours
Experimental: FaDu cells were grown in culture as described previously and treated with Ribavirin for 48 hours prior to preparation of protein extracts and western blot analysis.

[1] = target: T1, eIF4E:mRNA binding in cells (Mus musculus, UniProt P63073); assay: immunopurification of eIF4E from treated cells and semiquantitative RT-PCR; type: cell-based
T1 construct: endogenous in cells; host or cells: NIH 3T3 cells
Experimental: Sepharose-conjugated protein G (Amersham Pharmacia) for 30 min at 4° C., incubated with 10 μg of mouse anti-eIF4E antibody (Transduction Laboratories) for 90 min at 4° C., and subsequently incubated overnight at 4° C. upon addition of 0.5 mg yeast tRNA (Sigma-Aldrich), 200 units/ml RNasin (Ambion), and Sepharose-conjugated protein G. Bound Sepharose was washed once with NET-2 buffer supplemented with 1 mg/ml heparin (Sigma-Aldrich) at 4° C., six times with NET-2 buffer alone, and suspended in 100 mM Tris.HCl (pH 6.8)/4% (wt/vol) SDS/20% (vol/vol) glycerol/12% (vol/vol) 2-mercaptoethanol, and incubated for 5 min at 98° C. RNA was extracted once with 25:24:1 […], twice with chloroform:isopropanol, precipitated overnight at −20° C. with 2.5 volumes of absolute ethanol, 0.1 volume of 5 M sodium acetate (pH 5.2), and 20 μg glycogen (Sigma-Aldrich), washed with 75% (vol/vol) ethanol, and resuspended in water. […]. […]

[2] = tested on: polysomal loading of eIF4E-sensitive mRNAs; assay: polysomal loading of mRNAs, ribosome purification and quantitative RT-PCR; type: cell-based, mouse
Experimental: Cell pellets (500 mg) were homogenized in 1 ml of ice cold lysis buffer (20 mM Hepes/10 mM magnesium acetate/100 mM potassium acetate, pH 7.5) supplemented with protease inhibitors (EDTA-free Complete, Roche) and 400 units/ml of SUPERasine (Ambion), and incubated for 30 min on ice with occasional vortexing. Lysates were sedimented at 3,000×g for 10 min at 4° C. to pellet nuclei and cell debris. Supernatants were sedimented at 12,000×g for 20 min at 4° C. to pellet mitochondria. Cleared supernatants were then sedimented at 50,000 rpm (SW 50.1 rotor, Beckman) for 50 min at 4° C. to pellet ribosomes. Ribosomal pellets were resuspended in 200 μl of ice-cold lysis buffer and layered on top of 10-40% sucrose gradient buffered with the lysis buffer, and centrifuged at 50,000 rpm for 80 min at 4° C. RNA content of fractions was ascertained by using the ratio of absorbance at 260:280 nm. […] RNA from each fraction was quantified by spectrophotometry and 40 ng was converted into cDNA by using the Sensiscript reverse transcription kit (Qiagen, Valencia, Calif.). Quantitative real-time PCR was carried out in triplicate by using the QuantiTect SYBR green real-time PCR Kit (Qiagen) in an Opticon thermal cycler (MJ Research, Waltham, Mass.). […] Obtained real-time PCR profiles were analyzed by using Opticon software (MJ Research).

T1 sequence (P63073 2-217 limits assumed): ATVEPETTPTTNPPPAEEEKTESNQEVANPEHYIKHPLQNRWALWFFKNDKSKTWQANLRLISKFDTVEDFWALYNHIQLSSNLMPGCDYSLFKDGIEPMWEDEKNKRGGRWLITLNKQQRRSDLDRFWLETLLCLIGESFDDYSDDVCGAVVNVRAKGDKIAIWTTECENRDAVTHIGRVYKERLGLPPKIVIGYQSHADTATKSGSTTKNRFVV

NC(=O)c1ncn([C@@H]2O[C@H](CO)[C@@H](O)[C@H]2O)n1 [Ribavirin, 1-β-D-ribofuranosyl-1,2,4-triazole-3-carboxamide]
IC50 (AML-M5 progenitor cells): ~1 µM | Actin and eIF4E protein levels (FaDu cells): remain unchanged | protein level of NBS1, Cyclin D1 and ODC (FaDu cells): decreased | cytoplasmic eIF4E:VEGF mRNA complexes ([1]; 1 uM): partly abrogated | cytoplasmic eIF4E:actin mRNA complexes ([1]; 100 uM): not disrupted | EC50 ([1]; nuclear eIF4E, read-out: apparent EC50 inhibition of eIF4E binding to cyclin D1 mRNA in cells): ~1 µM | decrease of polysomal loading of VEGF and ODC mRNAs [2]: > 1,000 fold | polysomal loading of cyclin D1 mRNA ([2]; 1 μM): no significant effect
